# Experimental data taken from patent US20250100987A1 (priority 2021, published 2025).
# pEC50: −log10 of the molar value. Like-named read-outs stand apart in the source and are kept apart here.
# What was measured:
# Experiment in all cases: cell-based
# [1] = target: T1, Kappa opioid receptor (KOR) (Homo sapiens, UniProt P41145)
# [2] = target: T1, Kappa opioid receptor (KOR); remark: listed apart in the source
# [3] = target: T1, Kappa opioid receptor (KOR); remark: listed apart in the source
# T1 sequence (P41145 whole entry): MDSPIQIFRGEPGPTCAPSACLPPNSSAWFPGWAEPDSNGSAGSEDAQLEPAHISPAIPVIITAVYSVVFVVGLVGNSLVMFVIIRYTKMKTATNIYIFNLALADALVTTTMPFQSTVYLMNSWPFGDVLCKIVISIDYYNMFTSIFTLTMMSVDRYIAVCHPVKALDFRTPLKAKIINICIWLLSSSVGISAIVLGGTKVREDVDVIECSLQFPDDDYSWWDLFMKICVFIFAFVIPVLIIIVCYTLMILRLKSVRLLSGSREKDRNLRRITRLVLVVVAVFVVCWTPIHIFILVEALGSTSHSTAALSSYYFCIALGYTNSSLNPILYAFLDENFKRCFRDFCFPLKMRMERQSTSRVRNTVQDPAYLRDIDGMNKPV
Molecule,pEC50 ([1]; EC50 Potency Score),pEC50 ([2]; EC50 Potency Score),further results
O6C-20-nor-SalA Enantiomer A [ALB-230936],,,pEC50 ([1]; read-out: EC50 Potency Score): > 9.00; pEC50 ([2]; read-out: EC50 Potency Score): > 9.00
COC(=O)[C@@H]1C[C@H](OC(=O)/C=C/c2ccccc2)C(=O)[C@@H]2[C@H]3C[C@@H](c4ccoc4)CC(=O)[C@@H]3CC[C@]21C [ALB-231360],5.00 to 6.00,5.00 to 6.00,pEC50 [3]: ~4.34
"COC(=O)[C@@H]1C[C@H](O)C(=O)[C@@H]2[C@H]3C[C@@H](c4ccoc4)CC(=O)[C@@H]3CC[C@]21C [ALB-231274, O6C-20-nor-SalB]",5.00 to 6.00,6.00 to 7.00,
COCO[C@H]1C[C@@H](C(=O)OC)[C@]2(C)CC[C@H]3C(=O)C[C@H](c4ccoc4)C[C@@H]3[C@H]2C1=O [ALB-231273],> 9.00,> 9.00,pEC50 ([1]; estimated EC50): > 10.00; pEC50 ([2]; estimated EC50): > 10.00
"COC(=O)[C@@H]1C[C@H](OC(C)=O)C(=O)[C@@H]2[C@@]3(C)C[C@@H](c4ccoc4)CC(=O)[C@@H]3CC[C@]21C (racemic) [ALB-230937, O6C-20-nor-SalA racemic mixture]",> 9.00,> 9.00,pEC50 [3]: > 10.00; inhibition at 0.0001 µM ([3]; read-out: inhibition of cAMP production): 100%
O6C-20-nor-SalA Enantiomer B [ALB-230932],,,pEC50 ([1]; read-out: EC50 Potency Score): 7.00 to 9.00; pEC50 ([2]; read-out: EC50 Potency Score): 7.00 to 9.00
"COC(=O)[C@@H]1C[C@@H](OC(C)=O)C(=O)[C@@H]2[C@@]3(C)C[C@@H](c4ccoc4)CC(=O)[C@@H]3CC[C@]21C [ALB-230935, 2-cpi-O6C-20-nor-SalA]",7.00 to 9.00,7.00 to 9.00,
